{"source": "patent US8148392B2", "about": "“2-indolyl imidazo [4,5-d] phenanthroline derivatives and their use in the treatment of cancer” (Lorus Therapeutics Inc., priority 2005, dated 2012)", "key": {"[1]": {"system": "panel of 60 human cancer cell lines", "test": "NCI DTP in vitro anticancer screen, panel of 60 human cancer cell lines", "type": "cell-based", "conditions": "average over human tumour cell lines of the NCI panel (FIG. 1); read-out: average GI50 (growth inhibition by 50%)", "protocol": "For example, the following methodology, which is currently employed by the NCI, can be used to assess the GI50 of a candidate compound of Formula I in the selected cancer cell lines. Briefly, cell suspensions are diluted (5000-40,000 cells per well) and 100 μL of the diluted cell suspension is added into 96-well microtiter plates. Inoculates are allowed a preincubation period of 24 h at 37° C. for stabilization. Dilutions at twice the intended test concentration of the candidate compound are added at time zero in 100 μL aliquots to the microtiter plate wells. Test compounds are generally evaluated at five 10-fold dilutions. In routine testing, the highest well concentration is usually 10E-4 M, but this may be adjusted depending on the compound being tested. The cells are incubated with the test compound for 48 h in 5% CO2 atmosphere and 100% humidity. The cells are then assayed by using the sulforhodamine B assay (see, for example, Skehan, P., et al. (1990) JNCI, J. Natl. Cancer Inst. 82, 1107-1112; and Chen, S. F., et al. (1990) Proc. Am. Assoc. Cancer Res. 31, A2644) employing a plate reader which can be used to read the optical densities.\nCompounds 2 and 3 were evaluated for their antiproliferative effects in a panel of 60 human cancer cell lines as part of the in vitro anticancer screening services provided by the DTP (Developmental Therapeutics Program) of the US National Cancer Institute (NCI).\nAnalysis of the effects of compounds of Formula I on in vitro and in vivo cell growth inhibition were performed utilizing the methods as described in the preceding Examples. As shown in Example 12, cell growth inhibition by the parental compound 3 was screened by National Cancer Institute 60-cell line assay and leukemia, non-small cell cancer, colon cancer, renal cancer and prostate cancer panels were especially sensitive to compound 3."}, "[2]": {"system": "human colon carcinoma HT-29 cells", "test": "XTT cell proliferation assay, HT-29", "type": "cell-based", "conditions": "for IC50: as Example 13, Table 7", "method_in_brief": "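HT-29 cells in McCoy's 5A with 10% FBS, 37° C., 5% CO2, exposed to varying compound concentrations for 6-7 days. Viable cells quantified by XTT reduction to formazan; growth inhibition expressed as IC50 (μM).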"}, "Solubility in water": {"test": "Solubility in water", "type": "physicochemical", "conditions": "HCl salt of compound 2", "protocol": "A solution of 0.200 g of compound 2 (0.483 mmol) in DMF was treated with HCL(g) until no more precipitation was observed. The solid was then filtered, washed with dichloromethane and hexanes, dried in vacuum."}, "[3]": {"system": "HCT-116 colon cancer cells", "test": "XTT cell proliferation assay, HCT-116", "type": "cell-based, human", "conditions": "read-out: IC50 (cell growth inhibition)", "protocol": "(§1) Cell growth inhibition IC50 (μM) by compounds of Formula I was tested on various cancer cell types by XTT cell proliferation assay. The growth inhibitory effects of the compounds of Formula I as shown below for the melanoma cell line SK-MEL-2 were reproducible by Lorus Therapeutics Inc."}, "H-460 lung cancer cells": {"system": "H-460 lung cancer cells", "test": "XTT cell proliferation assay, H-460", "type": "cell-based, human", "conditions": "read-out: IC50 (cell growth inhibition)", "protocol": "as §1"}, "[4]": {"system": "DU-145 prostate cancer cells", "test": "XTT cell proliferation assay, DU-145", "type": "cell-based, human", "conditions": "read-out: IC50 (cell growth inhibition)", "protocol": "as §1"}, "[5]": {"system": "PC-3 prostate cancer cells", "test": "XTT cell proliferation assay, PC-3", "type": "cell-based, human", "conditions": "read-out: IC50 (cell growth inhibition)", "protocol": "as §1"}, "[6]": {"system": "MDA-MB-231 breast cancer cells", "test": "XTT cell proliferation assay, MDA-MB-231", "type": "cell-based, human", "conditions": "read-out: IC50 (cell growth inhibition)", "protocol": "as §1"}, "[7]": {"system": "MDA-MB-435 breast cancer cells", "test": "XTT cell proliferation assay, MDA-MB-435", "type": "cell-based, human", "conditions": "read-out: IC50 (cell growth inhibition)", "protocol": "as §1"}, "CCRF-CEM leukemia cells": {"system": "CCRF-CEM leukemia cells", "test": "XTT cell proliferation assay, CCRF-CEM", "type": "cell-based, human", "conditions": "read-out: IC50 (cell growth inhibition)", "protocol": "as §1"}, "MOLT-4 leukemia cells": {"system": "MOLT-4 leukemia cells", "test": "XTT cell proliferation assay, MOLT-4", "type": "cell-based, human", "conditions": "read-out: IC50 (cell growth inhibition)", "protocol": "as §1"}, "SK-MEL-2 melanoma cells": {"system": "SK-MEL-2 melanoma cells", "test": "XTT cell proliferation assay, SK-MEL-2", "type": "cell-based, human", "conditions": "read-out: IC50 (cell growth inhibition)", "protocol": "as §1"}, "KLF4 [8]": {"system": "KLF4", "test": "KLF4 gene expression by RT-PCR, HT-29", "type": "cell-based, human", "conditions": "HT-29, relative to vehicle control as 1", "protocol": "To determine whether compounds of Formula I can chelate zinc in cells, the effect of compound 3 on the expression level of a zinc-regulated gene, metallothionein 1A (MT1A), in human colon carcinoma HT-29 cells, was determined. HT-29 cells, 1×10^6 cells in 10 mL volume of the growth medium were seeded in 100 mm dishes and incubated overnight at 37° C. The medium was removed and replaced with the growth medium containing 35 μM ZnCl2, 1 μM or 4 μM TPEN (NNNN-tetrakis(2-pyridyl-methyl)ethylenediamine), or 1 μM or 4 μM compound 3, or 0.1% DMSO vehicle control. After incubation for 16 hours, the cells were detached by trypsinization, collected by centrifugation and washed once with PBS. Total RNA was extracted by using TRIZOL (Invitrogen, Life Technologies, Carlsbad, Calif.), following manufacturer's instruction, and the level of MT1A mRNA was measured by real time PCR using the comparative CT method as follows. First strand cDNA was synthesized from 200 ng total RNA in Biometra Tpersonal Thermal Cycler (Abgene, UK), using pd(N)6 random hexamer (Amersham Biosciences, Piscataway, N.J.) and SuperScript™ II Reverse Transcriptase kit (Invitrogen) by following manufacturer's protocol. Real-time PCR was performed in ABI Prism 7000 Sequence Detection System (Applied Biosystems Inc., ABI, Foster City, Calif.), using 5 μL of cDNA synthesized by above-mentioned procedure and respective TaqMan® Gene Expression Assays (ABI) by following ABI TaqMan® Universal PCR master mix protocol.\nThe ability of compounds of Formula I to modulate the mRNA level of a transition metal-regulated tumour suppressor gene was determined in vitro as follows. Compound 3 was tested to determine its ability to increase the expression of zinc-regulated tumour suppressor KLF4 mRNA in colon carcinoma HT-29 cells. […] HT-29 cells were incubated for 16 hours with DMSO as a vehicle control, 35 μM ZnCl2, 1 μM or 4 μM of compound 3, or 1 μM or 4 μM TPEN for 16 hours and mRNA was extracted from the cells as described in Example 19. The expression of KLF4 mRNA was analyzed by real-time polymerase chain reaction using the comparative CT method also as described in Example 19. Compound 3 induced the expression of KLF4 mRNA (approximately 8-fold) in HT-29 cells compared with HT-29 cells treated with vehicle alone (See FIG. 8).\n(§2) Gene expression levels of KLF4, induced by compounds of Formula I, were also examined on various cancer cell types by RT-PCR. Fold changes in KLF4 in compound-treated cells were expressed relative to KLF4 expression in vehicle control-treated cells of respective cell type as “1”. […] Additionally, xenografts of MDA-MB-435 implanted into mammary fat pads of female SCID mice have shown immunohistochemical staining consistent with melanocytic origin (Ellison G, Klinowska T, Westwood R F, Docter E, French T, Fox J C. (2002) Mol Pathol. 55(5): 294-299). The breast cancer cell line MDA-MB-435 may be expected to function differently than the other breast cancer cell lines.\nThe change in gene expression of KLF4 upon zinc depletion following compound 3 treatment was determined by RT-PCR as follows. HT-29 cells were treated with 1 μM compound 3 for the indicated time (FIG. 39A) or HT-29 cells were treated with 1 μM compound 3, 35 μM ZnCl2 or compund 3 and ZnCl2 together for 16 hr (FIG. 39B). Total RNA was extracted and gene expression level was determined by RT-PCR.\nFold change in KLF4 gene expression was presented relative to KLF4 expression in non-specific siRNA-transfected cells treated with vehicle control."}, "KLF4 [9]": {"system": "KLF4", "test": "KLF4 gene expression by RT-PCR, HCT-116", "type": "cell-based, human", "conditions": "HCT-116, relative to vehicle control as 1", "text": "as §2"}, "KLF4 [10]": {"system": "KLF4", "test": "KLF4 gene expression by RT-PCR, H-460", "type": "cell-based, human", "conditions": "H-460, relative to vehicle control as 1", "text": "as §2\nExpressions of KLF2, 4 and 6 genes in H-460 cells, treated with vehicle control or 2.5 μM compound 3 or compound 7, were measured by RT-PCR. Gene expression was presented relative to respective gene expression in vehicle control-treated group as “1”."}, "KLF4 [11]": {"system": "KLF4", "test": "KLF4 gene expression by RT-PCR, DU-145", "type": "cell-based, human", "conditions": "DU-145, relative to vehicle control as 1", "text": "as §2"}, "KLF4 [12]": {"system": "KLF4", "test": "KLF4 gene expression by RT-PCR, PC-3", "type": "cell-based, human", "conditions": "PC-3, relative to vehicle control as 1", "text": "as §2"}, "KLF4 [13]": {"system": "KLF4", "test": "KLF4 gene expression by RT-PCR, MDA-MB-231", "type": "cell-based, human", "conditions": "MDA-MB-231, relative to vehicle control as 1", "text": "as §2"}, "KLF4 [14]": {"system": "KLF4", "test": "KLF4 gene expression by RT-PCR, MDA-MB-435", "type": "cell-based, human", "conditions": "MDA-MB-435, relative to vehicle control as 1", "text": "as §2"}, "KLF4 [15]": {"system": "KLF4", "test": "KLF4 gene expression by RT-PCR, CCRF-CEM", "type": "cell-based, human", "conditions": "relative to vehicle control as 1", "text": "as §2"}, "KLF4 [16]": {"system": "KLF4", "test": "KLF4 gene expression by RT-PCR, MOLT-4", "type": "cell-based, human", "conditions": "MOLT-4, relative to vehicle control as 1", "text": "as §2"}, "KLF4 [17]": {"system": "KLF4", "test": "KLF4 gene expression by RT-PCR, SK-MEL-2", "type": "cell-based, human", "conditions": "SK-MEL-2, relative to vehicle control as 1", "text": "as §2"}}, "note": "pIC50: −log10 of the molar value. Where two headings read alike, the source gives them in different places.", "data": [{"molecule": "Brc1ccc2[nH]cc(-c3nc4c5cccnc5c5ncccc5c4[nH]3)c2c1", "note": "[Compound 2]", "values": [{"measurement": "GI50", "setting": "[1]", "result": "< 2000", "unit": "nM"}, {"measurement": "pIC50", "setting": "[2]; Homo sapiens, HT-29, XTT, 6-7 days, Table 3, read-out: IC50", "result": 6.15}, {"measurement": "IC50", "setting": "[2]; Homo sapiens, HT-29, XTT, read-out: IC50", "result": 1.5, "unit": "µg/mL"}, {"measurement": "solubility in water", "setting": "Solubility in water", "result": "soluble in water"}]}, {"molecule": "Cc1ccc2[nH]c(C34CC5CC(CC(C5)C3)C4)c(-c3nc4c5cccnc5c5ncccc5c4[nH]3)c2c1", "note": "[Compound 69]", "values": [{"measurement": "IC50", "setting": "[2]; HT-29, XTT", "result": 0.2, "unit": "µg/mL"}, {"measurement": "pIC50", "setting": "[2]; HT-29 colon, Table 8, read-out: IC50 (cell growth inhibition)", "result": 6.70}, {"measurement": "pIC50", "setting": "[3]", "result": 6.80}, {"measurement": "pIC50", "setting": "H-460 lung cancer cells", "result": 6.40}, {"measurement": "pIC50", "setting": "[4]", "result": 6.40}, {"measurement": "pIC50", "setting": "[5]", "result": 6.47}, {"measurement": "pIC50", "setting": "[6]", "result": 5.48}, {"measurement": "pIC50", "setting": "[7]", "result": 6.22}, {"measurement": "pIC50", "setting": "CCRF-CEM leukemia cells", "result": 6.70}, {"measurement": "pIC50", "setting": "MOLT-4 leukemia cells", "result": 6.70}, {"measurement": "pIC50", "setting": "SK-MEL-2 melanoma cells", "result": 6.74}, {"measurement": "KLF4 (gene fold increase)", "setting": "KLF4 [8]", "result": 6.54, "unit": "fold"}, {"measurement": "KLF4 (gene fold increase)", "setting": "KLF4 [9]", "result": 3.11, "unit": "fold"}, {"measurement": "KLF4 (gene fold increase)", "setting": "KLF4 [10]", "result": 1.95, "unit": "fold"}, {"measurement": "KLF4 (gene fold increase)", "setting": "KLF4 [11]", "result": 7.46, "unit": "fold"}, {"measurement": "KLF4 (gene fold increase)", "setting": "KLF4 [12]", "result": 0.95, "unit": "fold"}, {"measurement": "KLF4 (gene fold increase)", "setting": "KLF4 [13]", "result": 1.61, "unit": "fold"}, {"measurement": "KLF4 (gene fold increase)", "setting": "KLF4 [14]", "result": 8.91, "unit": "fold"}, {"measurement": "KLF4 (gene fold increase)", "setting": "KLF4 [15]", "result": 74.29, "unit": "fold"}, {"measurement": "KLF4 (gene fold increase)", "setting": "KLF4 [16]", "result": 276.28, "unit": "fold"}, {"measurement": "KLF4 (gene fold increase)", "setting": "KLF4 [17]", "result": 4, "unit": "fold"}]}]}
